Assay results taken from paper PMC5253651 (Nature Communications, 2017).
Like-named read-outs stand apart in the source and are kept apart here. Marks after values point to notes of the source that are not given here.

Experiments:
human FPPS [1] = target: T1, human FPPS (Homo sapiens, UniProt P14324); assay: Isothermal titration calorimetry (ITC) binding assay; parameters: His6 (N); made in house; host or cells: Escherichia coli BL21 (DE3)
T1 sequence (P14324 1-353 isoform P14324-2): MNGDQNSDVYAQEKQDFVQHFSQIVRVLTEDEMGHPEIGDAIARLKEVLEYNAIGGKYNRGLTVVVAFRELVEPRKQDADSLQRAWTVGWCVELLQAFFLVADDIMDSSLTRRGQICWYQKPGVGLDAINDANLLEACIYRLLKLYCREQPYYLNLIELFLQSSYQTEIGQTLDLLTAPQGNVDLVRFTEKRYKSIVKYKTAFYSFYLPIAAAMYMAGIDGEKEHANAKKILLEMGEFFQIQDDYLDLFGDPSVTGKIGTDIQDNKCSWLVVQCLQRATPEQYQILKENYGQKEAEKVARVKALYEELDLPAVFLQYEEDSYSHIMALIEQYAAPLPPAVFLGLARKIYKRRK
Method: Ligand (DMAPP, GPP and FPP) and MgCl2 solutions were prepared in the used dialysate. Each titration experiment consisted of a first 1 μl injection followed by 18 2 μl injections of a ligand solution into the 204.1 μl calorimetric cell loaded with the enzyme solution. […] When added, the concentration of MgCl2 was 5 mM. Heats of dilution were measured by injecting the ligands into the buffer alone and subtracted from the corresponding titration data. The data were fitted to the single-site-binding model implemented in the Origin software package provided with the ITC instrument.

human FPPS [2] = target: T1, human FPPS
Method: Reaction calorimetry was also carried out at 30 °C with a MicroCal iTC200 system. The enzyme and substrates were prepared in the reaction buffer (50 mM HEPES (pH 7.5), 150 mM NaCl, 2 mM MgCl2, 2 mM β-mercaptoethanol and 5% glycerol) in the same way described for the binding experiments. […] When added, FPP was preincubated together with the enzyme. The concentration of the enzyme in the cell was 400–500 nM, and those of the substrates in the syringe were 0.4–4 mM. Heats of dilution were measured and subtracted from the actual reaction data. […] Briefly, The molar reaction enthalpy (ΔH) was determined first based on the relationship:
in which Q is the total heat associated with producing n moles of product, [S0] is the starting concentration of the limiting substrate and V is the volume of the calorimetric cell. Q was calculated by integrating the thermal power (dQ/dt) measured over the complete course of reaction, whereas [S0] and V were known. Once ΔH was determined, the substrate concentration ([S]) could be determined as a function of time as described in the equation:
The rate of reaction could be calculated from dQ/dt for any given time point:
For kinetic measurements, the temporal experimental heat flow must be monitored accurately. […] Km and Vmax values were determined by fitting the rate data to the following equation[29]:

FPPS = conditions: cited from earlier work
N-BP-bound FPPS complex = conditions: binding of IPP to an N-BP-bound FPPS complex; cited from earlier work
[3] = ITC, 30 °C, titrated in absence of Mg2+, triplicate, read-out: Kd
[4] = ITC, 30 °C, titrated in presence of Mg2+ (5 mM MgCl2), triplicate, read-out: Kd
[5] = ITC, 30 °C, titrated in absence of Mg2+, triplicate
[6] = ITC, 30 °C, titrated in presence of Mg2+ (5 mM MgCl2), triplicate

SMILES | Kd (human FPPS [1]; [3]) [µM] | Kd (human FPPS [1]; [4]) [µM] | TΔS (human FPPS [1]; [5]) [kcal/mol] | n (molar binding ratio) (human FPPS [1]; [5]) | ΔH (human FPPS [1]; [5]) [kcal/mol] | TΔS (human FPPS [1]; [6]) [kcal/mol] | n (molar binding ratio) (human FPPS [1]; [6]) | ΔH (human FPPS [1]; [6]) [kcal/mol] | other results
C=C(C)CCO[P@@](=O)(O)OP(=O)(O)O [IPP, isopentenyl pyrophosphate] |  |  |  |  |  |  |  |  | Kd (N-BP-bound FPPS complex): 0.9 µM; effect on enzyme activity (substrate inhibition) (human FPPS [2]; experiment carried out in excess of IPP): significantly reduced enzyme activity; Km (FPPS; literature value for IPP): 1.8 µM
O=P(O)(O)OP(=O)(O)O [PPi] |  |  |  |  |  |  |  |  | binding affinity by ITC (result in words) (human FPPS [1]; both in the presence and absence of Mg2+): did not demonstrate an apparent binding event

The next lines start with results.

Kd (human FPPS [1]; [3]) [µM] | Kd (human FPPS [1]; [4]) [µM] | TΔS (human FPPS [1]; [5]) [kcal/mol] | n (molar binding ratio) (human FPPS [1]; [5]) | ΔH (human FPPS [1]; [5]) [kcal/mol] | TΔS (human FPPS [1]; [6]) [kcal/mol] | n (molar binding ratio) (human FPPS [1]; [6]) | ΔH (human FPPS [1]; [6]) [kcal/mol] | SMILES | other results
5.3 ± 0.4 | 6 ± 0.6 |  |  |  |  |  |  | CC(C)=CCC/C(C)=C/CC/C(C)=C/CO[P@@](=O)(O)OP(=O)(O)O (stereo in doubt) [FPP, farnesyl pyrophosphate] | Kd (human FPPS [1]; summary of ITC values in absence and presence of Mg2+, read-out: Kd for binding to the allosteric pocket): 5 to 6 µM
 |  | 1.6 | 1 ^† | -4.5 ± 0.2 | 2.1 | 0.87±0.01 | -5.8 ± 0.1 | CC(C)=CCOP(=O)(O)OP(=O)(O)O [DMAPP, dimethylallyl pyrophosphate] | Kd (human FPPS [1]; Kd, ITC, 30 °C, titrated in absence of Mg2+, triplicate): 43.7 ± 4.3 µM; Kd (human FPPS [1]; Kd, ITC, 30 °C, titrated in presence of Mg2+ (5 mM MgCl2), triplicate): 2.2 ± 0.2 µM
 |  | 1.8 | 1.12±0.01 | -5.5 ± 0.1 | 1.7 | 1.17±0.02 | -5.6 ± 0.1 | CC(C)=CCC/C(C)=C/CC/C(C)=C/COP(=O)(O)OP(=O)(O)O [FPP, farnesyl pyrophosphate] | effect on FPPS reaction rate curve (product inhibition) (human FPPS [2]; same excess experiment, reaction with an initial amount of FPP preincubated with enzyme): depressed rate curve
7.6 ± 0.9 | 2.1 ± 0.3 | 1.8 | 0.80±0.03 | -5.3 ± 0.2 | 0.2 | 0.79±0.01 | -7.7 ± 0.2 | CC(C)=CCC/C(C)=C/COP(=O)(O)OP(=O)(O)O [GPP, geranyl pyrophosphate] | Km (FPPS; previously reported Km value for GPP): 2.07 µM
